For one data set, the target named is T1, rat nSMase2 (Rattus norvegicus, UniProt O35049).
T1 construct: A membrane protein-enriched fraction of rat brain homogenate was used as the source for nSMase2; from tissue; host or cells: rat brain homogenate, membrane protein-enriched fraction
T1 sequence (O35049 1-655): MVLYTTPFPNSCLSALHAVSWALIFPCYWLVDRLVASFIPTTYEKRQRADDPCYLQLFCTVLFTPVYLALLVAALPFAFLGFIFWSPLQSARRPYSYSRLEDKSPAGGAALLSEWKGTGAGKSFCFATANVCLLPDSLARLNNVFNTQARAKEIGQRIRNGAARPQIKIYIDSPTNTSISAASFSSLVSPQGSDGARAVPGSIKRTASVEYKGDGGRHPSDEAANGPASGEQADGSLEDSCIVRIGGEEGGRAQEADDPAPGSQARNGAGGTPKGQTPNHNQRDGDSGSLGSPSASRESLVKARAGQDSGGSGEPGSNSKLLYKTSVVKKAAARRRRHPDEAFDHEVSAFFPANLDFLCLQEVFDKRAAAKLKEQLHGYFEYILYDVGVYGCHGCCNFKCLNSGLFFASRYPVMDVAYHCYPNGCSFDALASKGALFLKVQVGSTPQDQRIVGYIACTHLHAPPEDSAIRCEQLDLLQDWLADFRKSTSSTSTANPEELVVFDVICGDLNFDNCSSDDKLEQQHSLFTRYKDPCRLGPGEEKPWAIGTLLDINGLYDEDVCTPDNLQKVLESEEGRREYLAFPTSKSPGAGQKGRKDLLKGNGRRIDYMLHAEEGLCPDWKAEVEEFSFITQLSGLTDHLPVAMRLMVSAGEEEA
Description: Fluorescence assay with rat brain homogenate membrane fraction. The note with it: rat brain homogenates. The class given is biochemical.

Another data set can be described thus: Solubility. The data set is classed as physicochemical. The note with it: cambinol compared to GW4869.

“Also recorded” adds a separate entry of the source.

The source of these data is article PMC4444023 (PLoS ONE, 2015).

Turning to `O=c1[nH]c(=S)[nH]c(-c2ccccc2)c1Cc1c(O)ccc2ccccc12` [Cambinol, cambinol], the IC50 against rat nSMase2 amounted to 6 µM. Further, in the data set “Solubility”, the “aqueous solubility” value is “significantly higher; also recorded: improved”.
